Assay results from patent US20250027932A1, “DIFFERENTIATION OF HUMAN TISSUES WITHOUT CILIA FROM PLURIPOTENT STEM CELLS” (University of Washington, priority 2021, published 2025).

Key:
Assay type in all cases: cell-based, human
hPSCs = test: OCT4 and BRY immunofluorescence in hPSCs after CHIR99021; conditions: increasing doses of CHIR99021 in mTeSR1 for 48 hours; kinesin-2 knockout hPSCs, no significant difference from controls
Description: Cells and organoid cultures were fixed with 4% paraformaldehyde (Electron Microscopy Sciences) for 15 minutes, washed 3 times with Phosphate buffered saline (PBS, Thermo Fisher), blocked for 1 hour with blocking buffer (5% normal donkey serum and 0.3% Triton X-100 in PBS), and incubated overnight with primary antibodies including mouse acetylated α-tubulin (Sigma T7451), rabbit acetylated α-tubulin (Cell Signaling, D20G3), α-fetoprotein (AFP) (R&D MAB1368), α-smooth muscle actin (SMA) (R&D MAB1420), ZO-1 (Invitrogen, 339100), E-Cadherin (Abcam, ab11512), Nephrin (R&D, AF4269), p-Histone H3 (Santa Cruz sc-8656-R), OCT4 (Abcam ab19857), brachyury (BRY) (Santa Cruz sc-17745), SOX2 (Abcam ab97959), and 3-Tubulin III (Tuj1) (Sigma-Aldrich T2200-200UL). After washing with PBS, secondary donkey antibodies conjugated with Alexa-Fluor 488, 555, or 647 (1:500, Thermo Fisher) were applied, or Fluorescein Lotus Lectin (Vector Labs, FL-1321), with DAPI to stain the nuclei. […]
(§1) Fluorescence intensity analysis of BRY and OCT4 was performed on images processed and imaged identically, individual cells were identified automatically using Cell Profiler 2.0 and the average intensity per cell was plotted in BBP. […] Immunoblot band intensity levels were quantified using the ImageJ magic wand tool, normalized to the loading control, and pooled from multiple experiments to determine average and S.E.M. values. […]

GLI1 in EV of hPSCs = test: GLI1 immunoblot of extracellular vesicles (EV) from hPSCs ±SAG; conditions: SAG stimulation
Description: KIF3A^−/−, KIF3B^−/− and isogenic control hPSCs were lysed with RIPA buffer containing protease and phosphatase inhibitors (Roche). Protein concentration was determined using a Pierce BCA protein assay kit. 50 μg of total protein was separated in a 4-20% acrylamide gel (Bio-Rad) and analyzed with silver stain (Bio-Rad) or transferred onto a PDVF membrane using standard procedures. 5% milk was used as a blocking agent prior to and during immunoblotting. […]
as §1

[1] = test system: hedgehog signaling (GLI3, GLI1) in KIF3A−/− and KIF3B−/− mutants; test: GLI3 and GLI1 immunoblots of KIF3A−/− and KIF3B−/− kidney organoid cultures treated with hedgehog modulators; conditions: for GLI3/GLI1 response to prolonged treatment: day 18, 1 μM SAG or 10 μM cyclopamine starting on day 1.5
Description: (§2) KIF3A^−/−, KIF3B^−/− and isogenic control hPSCs were lysed with RIPA buffer containing protease and phosphatase inhibitors (Roche). Protein concentration was determined using a Pierce BCA protein assay kit. 50 μg of total protein was separated in a 4-20% acrylamide gel (Bio-Rad) and analyzed with silver stain (Bio-Rad) or transferred onto a PDVF membrane using standard procedures. 5% milk was used as a blocking agent prior to and during immunoblotting. Blots were probed with antibodies raised against PC1 (Santa Cruz sc-130554), PC2 (Santa Cruz sc-25749), KIF3A (Abcam ab11259), KIF3B (Cell Signaling 13817), […] (Cell Signaling 4970), FLOT1 (Cell Signaling 18634), IFT88 (Proteintech 13967-1-AP), ARL13B (Proteintech 17711-1-AP), GLI1 (Cell Signaling 3538), GLI2 (Abcam ab26056), PTCH1 (Cell Signaling 8358), ALIX (Cell Signaling 2171), ANXA5 (Cell Signaling 8555), GM130 (Cell Signaling 12480), HPS70 (Cell Signaling 4876), CD9 (Cell Signaling 13174), ICAM-1 (Cell Signaling 4915), and EpCAM (Cell Signaling 2626).
Kidney organoids were generated as previously described (Freedman, B. S. et al. Modelling kidney disease with CRISPR-mutant kidney organoids derived from human pluripotent epiblast spheroids. Nat Commun 6, 8715 (2015)). Briefly, dissociated hPSCs were plated into 96 or 24 well plates coated with 1% Geltrex (Thermo Fisher) in mTeSR1 (STEMCELL Technologies) supplemented with 10 μM Rho-kinase inhibitor Y27632 (Tocris Bioscience). The next morning, mTeSR1 containing 1.5% Geltrex was added to the wells, and the media was changed again to mTeSR1 24 hours later. […]
as §1

[2] = test system: kidney organoid cultures derived from control hPSCs; test: Organoid lineage differentiation in control cultures (immunofluorescence, 96-wells); conditions: 1 μM SAG or 10 μM cyclopamine from day 1.5 to day 18
Description: (§3) Kidney organoids were generated as previously described (Freedman, B. S. et al. Modelling kidney disease with CRISPR-mutant kidney organoids derived from human pluripotent epiblast spheroids. Nat Commun 6, 8715 (2015)). Briefly, dissociated hPSCs were plated into 96 or 24 well plates coated with 1% Geltrex (Thermo Fisher) in mTeSR1 (STEMCELL Technologies) supplemented with 10 μM Rho-kinase inhibitor Y27632 (Tocris Bioscience). The next morning, mTeSR1 containing 1.5% Geltrex was added to the wells, and the media was changed again to mTeSR1 24 hours later. 72 hours after plating, cells were treated with 12 μM CHIR99021 (Stemgent) in RPMI medium containing 1× Glutamax (Thermo Fisher) with 2 ng/ml recombinant BMP-4 (Peprotech) to induce kidney differentiation. 36 hours after treatment, the medium was changed to RPMI supplemented with B27 (RB medium, Thermo Fisher). RB medium changes were performed every three days. When indicated, organoid cultures were supplemented with 1 μM SAG or 10 μM Cyclopamine (both from Cayman Chemical) starting with the first addition of RB on day 1.5 (36 hours after CHIR99021 treatment on day 0) and maintained thereafter in RB media containing these compounds at all subsequent time points.
Cells and organoid cultures were fixed with 4% paraformaldehyde (Electron Microscopy Sciences) for 15 minutes, washed 3 times with Phosphate buffered saline (PBS, Thermo Fisher), blocked for 1 hour with blocking buffer (5% normal donkey serum and 0.3% Triton X-100 in PBS), and incubated overnight with primary antibodies including mouse acetylated α-tubulin (Sigma T7451), rabbit acetylated α-tubulin (Cell Signaling, D20G3), α-fetoprotein (AFP) (R&D MAB1368), α-smooth muscle actin (SMA) (R&D MAB1420), ZO-1 (Invitrogen, 339100), E-Cadherin (Abcam, ab11512), Nephrin (R&D, AF4269), p-Histone H3 (Santa Cruz sc-8656-R), OCT4 (Abcam ab19857), brachyury (BRY) (Santa Cruz sc-17745), SOX2 (Abcam ab97959), and 3-Tubulin III (Tuj1) (Sigma-Aldrich T2200-200UL). After washing with PBS, secondary donkey antibodies conjugated with Alexa-Fluor 488, 555, or 647 (1:500, Thermo Fisher) were applied, or Fluorescein Lotus Lectin (Vector Labs, FL-1321), with DAPI to stain the nuclei. Stained cells were imaged in PBS using a Nikon AIR confocal microscope or Eclipse TE wide-field microscope.

[3] = test system: hedgehog signaling (GLI3, GLI1) in control hPSC kidney organoid cultures; test: GLI3 and GLI1 immunoblots of kidney organoid cultures from control hPSCs treated with hedgehog modulators
Description: as §2, §3
Fluorescence intensity analysis of BRY and OCT4 was performed on images processed and imaged identically, individual cells were identified automatically using Cell Profiler 2.0 and the average intensity per cell was plotted in BBP. Line scan analyses were conducted utilizing the Intensity Profile function in NIS Elements. A single line scan of equal length was performed on each structure, and subsequently these were averaged to generate the graphs, plotting pixel intensity values for each channel on the y-axis against the points along the line on the x-axis. Immunoblot band intensity levels were quantified using the ImageJ magic wand tool, normalized to the loading control, and pooled from multiple experiments to determine average and S.E.M. values. A two-tailed t-test for two samples with unequal variance was applied to determine significance. In cases where a treatment condition was applied, a paired t-test was performed. Statistical analyses were performed in GraphPad Prism 9 software.

[4] = 1 μM SAG starting on day 1.5, by day 4 of differentiation
[5] = day 18, prolonged 16.5 day treatment, 1 μM SAG

| SMILES | brachyury (BRY) immunofluorescence (hPSCs) | GLI1 in EV (GLI1 in EV of hPSCs; control or PKD1−/− hPSCs) | GLI1 in EV (GLI1 in EV of hPSCs; kinesin-2 knockouts) | effect on GLI3 or GLI1 levels ([1]; 1 μM SAG starting on day 1.5) | GLI3/GLI1 response to prolonged treatment [1] | Kidney organoid differentiation (nephron organoids per well) [2] | Neuron differentiation (TUJ1+) [2] | SOX2+ neuronal progenitor cells [2] | GLI1 levels [3, 4] | GLI3R levels [3, 4] | GLI1 [3, 5] | GLI3 [3, 5] | GLI3R ([3]; day 18, 10 μM cyclopamine starting on day 1.5) |
| --- | --- | --- | --- | --- | --- | --- | --- | --- | --- | --- | --- | --- | --- |
| Cc1c[nH]c(-c2cnc(NCCNc3ccc(C#N)cn3)nc2-c2ccc(Cl)cc2Cl)n1 [CHIR99021] | dose-dependent upregulation | – | – | – | – | – | – | – | – | – | – | – | – |
| CNC1CCC(N(Cc2cccc(-c3ccncc3)c2)C(=O)c2sc3ccccc3c2Cl)CC1 (stereo not shown) [SAG] | – | increased after SAG stimulation | undetectable | no detectable effect | failed to respond | impaired | significantly suppressed | increased | increased levels | reduced levels | upregulated | strongly downregulated | – |
| CC1=C2C[C@H]3[C@@H](CC=C4C[C@@H](O)CC[C@@]43C)[C@@H]2CC[C@]12O[C@@H]1C[C@H](C)CN[C@H]1[C@H]2C [cyclopamine] | – | – | – | – | failed to respond | – | did not reach statistical significance | strong inhibitory effect | – | – | – | – | modestly increased |
